Source: patent EP4600262A1, “KERATIN YK93-5, PREPARATION METHOD, AND PHARMACEUTICAL COMPOSITION AND USE THEREOF” (INSTITUTE OF MATERIA MEDICA, CHINESE ACADEMY OF MEDICAL …, priority 2022, dated 2024)
Where a name gives a salt, the structure may show the parent alone.

Experiments:
[1] = system: mouse prostatic hyperplasia model; assay: mouse prostatic hyperplasia model (propionate testosterone, androgen loading); type: in vivo, Male Kunming mice; details: finasteride 1mg/kg, YK93-5 0.5g/kg
Method: • Animals: Male Kunming mice, weight: 18-20 grams • Drugs: propionate testosterone injection (Ningbo Second Hormon Factory); finasteride (Merck Sharp & Dohme, MSD), YK93-5 • Instruments: electronic balance, timer
• Normal control group; • Model group: Androgen loading Model; • Positive control group: finasteride (1mg/kg) group; • YK93-5 (0.5g/kg) group.
• Preparation of experimental animals: The experimental animals were adapted to the experimental environment (temperature 22°C±2°C, relative humidity 50%±2%) for 1 day. • Subcutaneous injection of propionate testosterone to replicate mice prostatic hyperplasia model: Mice were randomly grouped 10-12 in each group before the model being established. Propionate testosterone (0.01mg/kg) in soybean oil was injected subcutaneously, once a day for 30 consecutive days. Mice in the normal control group were injected subcutaneously with an equal volume of sodium carboxymethyl cellulose. Immediately after the model was established, finasteride 1mg/kg, or YK93-5 0.5g/kg were orally administered. Mice were weighed on the next day. After 30 days of administration, mice were weighed, executed. The prostate was excised through a median incision in the lower abdomen, the wet weight was weighed, and the prostate index was calculated by the wet weight of the prostate (mg)/body weight of the mouse (g). […] with 4% paraformaldehyde, embedded in paraffin, and cut into thin slices with the largest surface. Hematoxylin and eosin staining were used to examine the pathological changes of tissue slices.
The average value, standard deviation and standard error of the prostate index and pathological score in each group were calculated. The data from the groups were compared with each other by TTEST, and P<0.05 was considered as a significant difference.

mouse pain model = mouse pain model (1% acetic acid writhing); type: in vivo, Male Kunming mice; details: within 15 minutes after 1% acetic acid intraperitoneally; Tramadol Hydrochloride 50mg/kg, YK93-5 2g/kg by gavage once a day for 7 days
Method: 30 minutes after the last administration, 1% acetic acid was administered intraperitoneally, and the writhing times of mice within 15 minutes was recorded, and the inhibition rate of drug-induced writhing reaction was calculated. The observation criteria were concave abdominal cavity, extended hind limbs, and raised buttocks.
The inhibition rate was calculated by (Mean number of writhing reactions in the normal control group - Mean number of writhing reactions in the treatment group)/Mean number of writhing reactions in the normal control group *100%. The mean value, standard deviation, and standard error of the number of writhing was recorded, and the data from the groups were compared with each other by T.TEST, and P<0.05 was considered as a significant difference.

B16F10 melanoma = details: CTX 0.1 g/kg once a week, YK93-5 2 g/kg daily
Method: • Preparation of experimental animals: The experimental animals were adapted to the experimental environment (temperature 22°C±2°C, relative humidity 50%±2%) for 1 day. • Subcutaneous inoculation of B16F10 cell suspension to replicate a mouse melanoma model: Under sterile conditions, the tumor block was removed, ground into tumor fluid, the concentration was adjusted with physiological saline to 2.58 × 10^6 /ml, and 0.2 ml was taken to evenly inoculate subcutaneously on the armpit back of mice. On the next day, the animals were randomly grouped and administration began (recorded as Day 0). […] On the day of treatment, weight was measured, 20µL of blood was obtained by taking blood from the eye socket and the blood routine analysis was performed, the tumor block was peeled off, weighed and photographed, and the tumor suppression rate was calculated.
The tumor suppression rate [(The average weight of the tumor in the normal control group - the average weight of the tumor in the experimental group) / The average weight of the tumor in the normal control group × 100 %] and average value, standard deviation and standard errors of tumor weight were calculated. The data from the groups were compared with each other by T.TEST, and P<0.05 was considered as a significant difference.

Method for Lewis lung cancer: • Preparation of experimental animals: The experimental animals were adapted to the experimental environment (temperature 22°C±2°C, relative humidity 50%±2%) for 1 day. • Subcutaneous inoculation of Lewis cell suspension to replicate mouse breast cancer model: The Lewis tumor tissue was ground into a suspension with a glass homogenizer, the tumor suspension was aspirated with a syringe, the number of live cells was calculated, the concentration of the cells was adjusted to 2.6*10^6/ml with physiological saline, and then the suspension was injected to the left armpit of the mouse with 0.2 ml/mouse. […] On the day of the treatment, the weight was measured, 20µl of blood was obtained from the orbital blood and the routine blood analysis was performed. The tumor blocks were stripped, weighed and photographed, and the tumor suppression rate was calculated.
The tumor suppression rate [(The average weight of the tumor in the normal control group - the average weight of the tumor in the experimental group) / The average weight of the tumor in the normal control group × 100 %] and the average value, standard deviation and standard errors of tumor weight were calculated. The data from the groups were compared with each other by T.TEST, and P<0.05 was considered as a significant difference.

SMILES: CC(C)(C)NC(=O)[C@H]1CC[C@H]2[C@@H]3CC[C@H]4NC(=O)C=C[C@]4(C)[C@H]3CC[C@]12C [finasteride]
- wet weight of the prostate ([1]; after 30 days of oral administration): 40.4 ± 9.2 mg
- pathological damage of prostatic hyperplasia (histopathology, H&E) ([1]; compared with the model group, 30 days oral): the trend of hyperplasia improves, but there is no statistical difference
- prostate index ([1]; wet weight of the prostate (mg)/body weight of the mouse (g), 30 days oral): 0.95±0.24

SMILES: COc1cccc(C2(O)CCCCC2CN(C)C)c1 (centres unmarked) [Tramadol Hydrochloride]
- Number of writhing (mouse pain model): 1.75±4.56

SMILES: O=P1(N(CCCl)CCCl)NCCCO1 (centres unmarked) [Cyclophosphamide]
- Change of weight (g) After administration (Lewis lung cancer; body weight after administration, cyclophosphamide 0.1 g/kg intraperitoneally single time, YK93-5 2 g/kg intragastric daily for 17 days): 21.07 ± 1.61 g
- Change of weight (g) Before administration (Lewis lung cancer; body weight before administration): 20.52 ± 1.83 g
- Tumor suppression (%) (Lewis lung cancer; cyclophosphamide 0.1 g/kg intraperitoneally single time, YK93-5 2 g/kg intragastric daily for 17 days): 91.22%
- Tumor weight (B16F10 melanoma): 0.26 ± 0.11 g
